# Measured values published in patent US11976074B1, “Crystalline salts of Linsitinib” (Sling Therapeutics, Inc., priority 2023, dated 2024).
# “Also recorded” adds a separate entry of the source.
# Legend:
# Assay type in all cases: physicochemical
# [1] = pH-solubility of linsitinib free base and selected salts (pH 1.5 to 6.5, overnight equilibration, HPLC); settings: for solubility: overnight equilibration; for Final pH: after overnight equilibration
# Method: The pH-solubility of selected salts (Phosphate 1, L-Malate 1, Esylate 1, and Esylate 2) was evaluated and compared with linsitinib free base. The solubility analysis was conducted in a manner consistent with a previous study that was performed with linsitinib free base. Aqueous solutions were prepared between pH 1.5 and pH 6.5 in 0.5 pH unit increments via titration of the solution using NaOH and HCl. For each salt or the free base, an attempt was made to reach saturation in each of the solutions by adding sufficient material to the solution such that excess solids remained. If saturation was achieved, the pH of the solution was measured and adjusted to the target pH and additional material was added if needed. The samples were then equilibrated overnight. The final pH of the solution was measured, the solids were filtered and selected samples were analyzed by PXRD. The concentration of linsitinib in the filtrate was quantitated by HPLC (diluted as needed). In some cases, significant drift (+1 pH unit or more) of the final pH from the target pH was observed after the overnight equilibration.
# The pH-solubility data is shown graphically in FIG. 89. […] Indeed, it should be noted that in the majority of the low pH systems, higher initial dissolution/solubility was observed followed by precipitation of the material from solution upon longer equilibration.
# [2] = Equilibrium solubility in bio-relevant media (FaSSGF pH 1.6, FaSSIF pH 6.5)
# From the text: In addition to the pH-solubility data, a comparison of the equilibrium solubility of linsitinib free base and salts in two bio-relevant media (Table 28), fasted state simulated gastric fluid (FaSSGF pH 1.6) and intestinal fluid (FaSSIF pH 6.5) was completed. […] A saturated solution of Esylate 1 was not achieved during this study and therefore the equilibrium solubility could be higher than determined. It should be noted that variability of almost a full pH unit was noted among the samples making a direct comparison more challenging.
# [3] = DVS analysis (hygroscopicity) of Esylate 2
# From the text: Esylate 2 appears to be a stable polymorph of the esylate salt of linsitinib. Esylate 2 was isolated from a wide range of techniques, solvents and temperatures, and a few samples were characterized further (Table 13). NMR analysis confirmed it to be a 1:1 linsitinib esylate salt. […] This was further supported by successful indexing of its PXRD pattern, whose calculated unit cell volume pointed to a 1:1 salt (Section 0).
# [4] = 75% relative humidity stress test; settings: 24 days, RT
# Method: (§1) A scale-up attempt for Esylate 2 was carried out towards the relative humidity stress test and the mechanical stress test.
# [5] = Mechanical stress test (neat grinding/milling); settings: milled neat at max power for 30 minutes
# Method: as §1
# [6] = Interconversion slurries of esylate forms; settings: 4° C., RT, 60° C.; MEK and 2:1 EtOH:HEP
# Method: To find the thermodynamically stable form of the mono-salt, interconversion slurries were set-up at three different temperatures in two different solvent systems between Esylates 1, 2, 3 and Esylate 4+Esylate 5 (Table 11). A sample of Esylate 4+Esylate 5 was included as part of the interconversion slurry in-spite of Esylate 4 being a solvate as Esylate 5 could not be isolated as a separate pure phase until the drying experiment was carried out on Esylate 4 towards the end of the study. Slurries were set-up at 4° C., RT and at 60° C. in MEK and 2:1 EtOH:HEP, resulting in a total of six experiments which were run for a total of 7 days.
# [7] = Water activity slurries of Esylate 2 seeded with Esylate 1; settings: for PXRD result of water activity slurry: seeded with Esylate 1
# From the text: Water activity slurries were set-up with Esylate 2 and seeds of Esylate 1 to explore the presence of a potential hydrate and any associated critical water activity (Table 12). Four slurries were set-up in varying ratios of THF and H2O corresponding to 0.45, 0.63, 0.78 and 0.91 aw respectively.
# [8] = Physical stability testing of Esylate 4 (elevated temperature vacuum drying); settings: vacuum oven, 60° C., 18 hours
# From the text: Esylate 4 was obtained from salt formation experiments using 1 Eq ESA at RT and ST in IPA and was further characterized using multiple techniques (Table 16).
# Esylate 5 was initially only obtained in-tandem with Esylate 4 from slurries in several different solvent systems (FIG. 4). […] Due to the fact that the sample had been generated via drying at elevated temperature, the weight loss observed upon heating is likely due to surface or channel water absorbed during exposure to ambient conditions. […] Esylate 5 was not obtained from any of the interconversion slurries, indicating it is metastable under the conditions investigated (Table 18).
# [9] = Heating experiments with selected malate samples
# Method: Based on the thermal data, Malate 4 and Malate 5 were heated at […] for 15 minutes. The solids were re-analyzed by PXRD after heating to investigate any form change upon dehydration. […] While there was an insufficient amount of sample to further characterize Malate 7, based on the conditions upon which it was generated, it could be a lower hydrate or an anhydrous form.
# [10] = Thermogravimetric analysis (TGA); settings: start to 83° C.
# Method: The TG analysis was carried out using a TA Instruments […] Discovery Series instrument. The instrument balance was calibrated using class M weights and the temperature calibration was performed using alumel. The nitrogen purge was 10 mL per minute at the balance and 25 mL per minute at the furnace. The sample was placed into a pre-tared platinum pan and heated from approximately 25° C. to 300° C. at a rate of 10° C. per minute.
# [11] = Differential scanning calorimetry (DSC); settings: endotherms
# Method: DSC analysis was carried out using a TA Instruments […] Discovery Series instrument. The instrument temperature calibrations were performed using indium. The DSC cell was kept under a nitrogen purge of 50 mL per minute during the analysis. The sample was placed in a standard, crimped aluminum pan and heated from approximately 25° C. to 300° C. at a rate of 10° C. per minute
compound,measurement,setting,value
CCS(=O)(=O)O.C[C@]1(O)C[C@@H](c2nc(-c3ccc4ccc(-c5ccccc5)nc4c3)c3c(N)nccn32)C1 [Esylate 2],solubility,"[1]; aqueous solution, pH 6, aqueous buffer, thermodynamic from solid, target pH 6.0, read-out: Solubility",0.7 mg/mL
same,Solubility compared to the free base and other salts,[1]; between pH 3 and pH 4,highest solubility
same,Solubility compared with the free base or Phosphate 1,[1]; lower pH (<3),significantly higher solubility
same,Final pH,[1]; target pH 1.5,1.45
same,solubility,"[1]; target pH 1.5, * = clear solution, not equilibrium value",106.19 mg/mL
same,Final pH,[1]; target pH 2.0,2.06
same,solubility,"[1]; target pH 2.0, * = clear solution, not equilibrium value",97.33 mg/mL
same,Final pH,[1]; target pH 2.5,2.54
same,solubility,"[1]; target pH 2.5, * = clear solution, not equilibrium value",71.00 mg/mL
same,Final pH,[1]; target pH 3.0,3.04
same,solubility,"[1]; target pH 3.0, * = clear solution, not equilibrium value",73.90 mg/mL
same,Final pH,[1]; target pH 3.5,3.53
same,solubility,"[1]; target pH 3.5, * = clear solution, not equilibrium value",38.04 mg/mL
same,Final pH,[1]; target pH 4.0,3.99
same,solubility,"[1]; target pH 4.0, * = clear solution, not equilibrium value",39.56 mg/mL
same,Final pH,[1]; target pH 4.5,4.54
same,solubility,"[1]; target pH 4.5, * = clear solution, not equilibrium value",18.90 mg/mL
same,Final pH,[1]; target pH 5.0,4.96
same,solubility,[1]; target pH 5.0,20.46 mg/mL
same,Final pH,[1]; target pH 5.5,5.48
same,Final pH,[1]; target pH 6.0,4.18
same,Final pH,[1]; target pH 6.5,4.34
same,solubility,[1]; target pH 6.5,0.002 mg/mL
same,Final pH,[2]; FaSSGF (pH 1.6),3.25
same,solubility,[2]; FaSSGF (pH 1.6),103.10 mg/mL
same,Solubility compared with the free base,"[2]; FaSSGF (pH 1.6), in words",highest solubility by a significant margin
same,Final pH,[2]; FaSSIF (pH 6.5),3.72
same,solubility,[2]; FaSSIF (pH 6.5),1.62 mg/mL
same,Hygroscopicity by DVS,[3],slightly hygroscopic
same,Net weight change after DVS analysis,[3],no net weight change
same,Weight gain and loss during the sorption and desorption cycles,[3],1%
same,DVS sorption total weight gain,[3]; 5-95% RH,5-95% RH: Total 33.1% weight gain
same,DVS sorption weight gain,[3]; 35-75% RH,35-75% RH: 12.0% weight gain
same,DVS desorption weight loss,[3]; 75-35% RH,75-35% RH: 12.3% weight loss
same,DVS sorption weight gain,[3]; 75-95% RH,75-95% RH: 16.9% weight gain
same,DVS desorption total weight loss,[3]; 95-5% RH,95-5% RH: Total 33.1% weight loss
same,DVS desorption weight loss,[3]; 95-75% RH,95-75% RH: 14.2% weight loss
same,Water up-take above 85% RH,[3]; above 85% RH,~0.8%
same,DVS net weight change,[3]; after sorption and desorption,−0.04% weight loss
same,PXRD result after 75% RH stress,[4],no form change; also recorded: Esylate 2
same,Weight gain by TGA after 75% RH stress,[4],no weight gain
same,PXRD result after grinding,[5],poorly crystalline Esylate 2 along with amorphous residue
same,Relative stability of the form in interconversion slurries,[6],most stable form
same,PXRD result of water activity slurry,"[7]; 93.1% THF in H2O, aw = 0.91, RT",Esylate 2
same,PXRD result of water activity slurry,"[7]; 94.7% THF in H2O, aw = 0.78, RT",Esylate 2
same,PXRD result of water activity slurry,"[7]; 96.2% THF in H2O, aw = 0.63, RT",Esylate 2
same,PXRD result of water activity slurry,"[7]; 97.6% THF in H2O, aw = 0.45, RT",Esylate 2
same,"Critical water activity, if present",[7]; THF/H2O slurries at RT,> 0.91 aw
CCS(=O)(=O)O.C[C@]1(O)C[C@@H](c2nc(-c3ccc4ccc(-c5ccccc5)nc4c3)c3c(N)nccn32)C1 [Esylate 4],Relative stability of the form in interconversion slurries,[6],metastable
same,PXRD result after vacuum drying,[8],form change into Esylate 5
C[C@]1(O)C[C@@H](c2nc(-c3ccc4ccc(-c5ccccc5)nc4c3)c3c(N)nccn32)C1.O=C(O)C[C@H](O)C(=O)O [Malate 5],XRPD result after heating,"[9]; 92° C., 15 min",Malate 7 + pk
same,Form change upon heating (PXRD),[9]; heated for 15 minutes,"dehydrate to a new form, designated as Malate 7"
same,TGA Results (weight loss),[10],"7.4%, start to 83 °C"
same,"DSC Results, Endo",[11],Endo: 109 °C
